Source: paper PMC8279414, “Discovery and Synthesis of a Pyrimidine-Based Aurora Kinase Inhibitor to Reduce Levels of MYC Oncoproteins” (Journal of Medicinal Chemistry, 2021)

Legend:
[1] = system: NCI-H446 xenograft tumors; assay: In vivo xenograft tumor growth inhibition; design: species or system mice
Method: (§1) Male athymic nu/nu nude mice (BioLASCO, Taiwan) 6 weeks old were housed in sterile cages maintained under 12 h light/dark cycles with controlled temperature and humidity. Mice were inoculated subcutaneously with 1 × 10^6 NCI–H446 cells (ATCC@ HTB-171) resuspended in saline mixed with 50% Matrigel matrix (Corning, USA). The sizes of the xenografted tumors were measured by a digital caliper (GMC-190; Goldsun Electronics Co.) and calculated using the formula: tumor volume (mm^3) = length × (width)2/2. Body weight and tumor size were measured at least twice a week. When the xenograft tumor reached ≥200 mm^3 in size, mice were intravenous or orally administered with the vehicle (5% dimethylacetamide/95% PEG400) or the compounds on a 5-on-2-off dosing regimen for 2–4 weeks. Tumor growth was analyzed for a statistically significant difference using ANOVA, followed by the Student–Newman–Keuls test. P < 0.05 was considered a significant difference between groups.

[2] = Body weight of xenograft mice during treatment; format: in vivo; settings: PO 100 mg/kg, 4-week dosing period
Method: as §1

[3] = system: cMYC in NCI-H446 xenograft tumors; assay: In vivo target validation: cMYC protein level in tumors (western blot); design: species or system mice; settings: single oral dose 100 mg/kg
Method: (§2) Tumors were harvested after 2, 4, 8, and 24 h of the treatment, respectively (Figure 4A). Whole tumor tissues were collected for western blotting and immunohistochemistry (IHC) analyses. […] The western blot result of phosphorylated Aurora A/B/C was not provided due to the inability of detecting the signal in the tumor tissues.
(§3) The efficacy of a compound in reducing the MYC protein level and in inducing cell apoptosis was assessed using an NCI-H446 xenograft tumorigenicity mouse model. Six-week-old male athymic nu/nu nude mice (BioLASCO, Taiwan) were inoculated subcutaneously with 1 × 10^6 NCI-H446 cells resuspended in saline mixed with 50% Matrigel matrix (Corning, USA). […] Tumors were harvested after 2, 4, 8, and 24 h of drug treatment, respectively. Half of the tumor was cryopreserved and then subjected to western analysis; the other half was fixed in 10% formalin and then embedded in paraffin. For immunohistochemistry, tissue paraffin sections were deparaffinized using xylene and ethanol. After rehydration, antigen retrieval was achieved by placing the slides in 100 °C citrate buffer, pH 6.0 for 1 h. Endogenous peroxides were quenched by 0.5% H2O2 for 10 min. Slides were blocked with 3% BSA for 30 min and then incubated with a rabbit anticleaved Caspase-3 antibody (Cell signaling, 9661S) at room temperature for 1.5 h. After three washes with 1× PBS, a goat antirabbit HRP-polymer (Biocare Medical, USA) was added, followed by development of the color using 3,3′-diaminobenzidine substrate chromogen (Biocare Medical, USA). The nucleus was stained with hematoxylin.

[4] = system: pH3(Ser10) in NCI-H446 xenograft tumors; assay: In vivo target validation: phosphorylation of histone H3 at Ser10 in tumors (western blot); design: species or system mice; settings: single oral dose 100 mg/kg, 2 h after drug administration
Method: as §2
as §3, with “After three washes with 1× PBS, a goat antirabbit HRP-polymer (Biocare Medical, USA) was added, followed by development of the color using 3,3′-diaminobenzidine substrate chromogen (Biocare Medical, USA). The nucleus was stained with hematoxylin.” left out

[5] = system: cleaved PARP-1 (cPARP-1) in NCI-H446 xenograft tumors; assay: In vivo target validation: cleaved PARP-1 in tumors (western blot); design: species or system mice; settings: single oral dose 100 mg/kg, after 24 h
Method: (§4) Apoptosis was assessed using levels of PARP-1, one of several known cellular substrates of caspases; cleavage of PARP-1 by caspases is considered a hallmark of apoptosis.[44]
as §3, with “The nucleus was stained with hematoxylin.” left out

[6] = system: cleaved Caspase-3 (CASP3) in NCI-H446 xenograft tumors; assay: In vivo target validation: cleaved Caspase-3 immunohistochemistry; design: species or system mice; settings: single oral dose 100 mg/kg
Method: as §4
as §3, with “The nucleus was stained with hematoxylin.” left out

## CCC(=O)n1nc(C)cc1Nc1cc(N2CCN(CC)CC2)nc(N[C@H]2CCN(C(=O)c3ccc(Cl)cc3F)C2)n1 [Compound 25, (S)-1-(5-((2-((1-(4-Chloro-2-fluorobenzoyl)pyrrolidin-3-yl)amino)-6-(4-ethylpiperazin-1-yl)pyrimidin-4-yl)amino)-3-methyl-1H-pyrazol-1-yl)propan-1-one]
[1]; PO 100 mg/kg, 5-on-2-off, 2 weeks
  shrinkage of tumors with volume >750 mm^3: great potency to shrink tumors
[1]; PO 100 mg/kg, 5-on-2-off, four consecutive weeks
  tumor volume regression: > 80%
[1]; PO, 5-on-2-off, after end of dosing
  xenografted tumors remained stable after the last dosage: 44 days
[1]; oral administration, 5-on-2-off regimen
  anticancer activity in NCI-H446 xenograft tumor model: dose-dependent anticancer activity
[2]
  body weight change: less than 5%
[3]; 24 h after dosing
  cMYC protein level relative to vehicle-treated tumors: around 37%
[3]; 24 h post-treatment, vehicle 1.0 ± 0.230
  relative cMYC protein level in tumors: 0.374 ± 0.204
[4]
  reduction of phosphorylation level of histone H3 at Ser10: > 90%
[5]
  cleaved PARP-1 (cPARP-1) levels in tumor tissues: significantly upregulated
[6]
  incidence of cleaved Caspase-3 (CASP3), IHC: greatly increased
